{"source": "patent US20140349924A1", "about": "(Novo Nordisk A/S, priority 2007, published 2014)", "key": {"[1]": {"settings": "freeze dried from aqueous solutions with pH moved below the isoelectric point; cited from earlier work"}, "[2]": {"assay": "freshly excised rat gut sacs (small intestine) incubated in culture medium pH 7.4", "settings": "37° C, up to 2 h"}, "[3]": {"settings": "293.2 Kelvin; static electric fields or relatively low frequencies; cited from earlier work"}}, "data": [{"compound": "lysozyme: lysozyme lyophilized from aqueous solution, literature example (Klibanov et al)", "values": [{"measurement": "Solubility in 1,5 pentanediol", "setting": "[1]", "value": "markedly increased"}]}, {"compound": "Asp^B28 human insulin", "values": [{"measurement": "fragment found", "setting": "[2]", "value": "degradation product (peak ˜5218), 2 h"}]}, {"compound": "CO", "note": "[Methanol]", "values": [{"measurement": "Dielectricity constant, ε*", "setting": "[3]", "value": 33.0}]}]}
